The values that follow come from patent publication US20170311608A1, “BACILLUS THURINGIENSIS SUBSP. AIZAWAI AND CYANTRANILIPROLE MIXTURES FOR DIAMONDBACK MOTH, CABBAGE LOOPER, BEET ARMYWORM, SOYBEAN LOOPER, CORN EARWORM, SOUTHWESTERN CORN BORER AND SUGARCANE BORER CONTROL” (priority 2016, published 2017).

In one assay the test system is corn earworm larvae. The assay can be described thus: Leaf dip test, corn earworm larvae. The format is in vivo. The settings on record: Helicoverpa zea, foliar, Bta 27 ppm, cyantraniliprole 10.0 ppm, mixture 27 ppm + 10.0 ppm, read-out: % Efficacy. Here is the method: (§1) The present invention is not limited to the products or formulation types used herein. In each example below, the studies were conducted as follows.
(§2) For these tests, standardized laboratory leaf dip methods were used to inoculate plant material with treatment(s). Dry, treated leaves were placed into Petri dishes (100×25 mm) containing filter paper wetted with 500 μl of distilled H2O (“dH2O”). Each dish was then infested with between 5 and 10 larvae, dependent on species. Efficacy ratings were taken at specified intervals. Synergy ratings were calculated for each test.
(§3) % Cexp=A+B−(AB/100), where % Cexp is the expected efficacy and “in which A and B are the control levels given by the single [insecticides]. […] Adopting a conservative approach, Applicant determined synergy to be present at ratios of >1.15.

Another assay has as its system soybean looper larvae. The assay can be described thus: Leaf dip test, soybean looper larvae. The format is in vivo, Chrysodeixis includens. The following applies: foliar, Bta 27 ppm, cyantraniliprole 1.0 ppm, mixture 27 ppm + 1.0 ppm, read-out: % Efficacy. Here is the method:
as §1, §2, §3

The next assay concerns sugarcane borer larvae. The assay can be described thus: Leaf dip test, sugarcane borer larvae. Type of assay: in vivo. The settings on record: Diatraea saccharalis, foliar, Bta 2.7 ppm, cyantraniliprole 1.0 ppm, mixture 2.7 ppm + 1.0 ppm, read-out: % Efficacy. Here is the method:
as §1, §2, §3

Another assay concerns beet armyworm larvae. The assay can be described thus: Leaf dip test, beet armyworm larvae. Type of assay: in vivo. The settings on record: Spodoptera exigua, foliar, Bta 2.7 ppm, cyantraniliprole 1.0 ppm, mixture 2.7 ppm + 1.0 ppm, read-out: % Efficacy. Here is the method:
as §1, §2, §3

Another assay has as its system cabbage looper larvae. The assay can be described thus: Leaf dip test, cabbage looper larvae. The format is in vivo. The following applies: Trichoplusia ni, foliar, Bta 2.7 ppm, cyantraniliprole 0.50 ppm, mixture 2.7 ppm + 0.50 ppm, read-out: % Efficacy. Here is the method: as §1, §2, §3
The subject of another assay is diamondback moth larvae. The assay can be described thus: Leaf dip test, diamondback moth larvae. The format is in vivo. The settings on record: Plutella xylostella, foliar, Bta 2.7 ppm, cyantraniliprole 0.1 ppm, mixture 2.7 ppm + 0.1 ppm, read-out: % Efficacy. From the text:
The following examples illustrate the effectiveness of Bacillus thuringiensis subsp. aizawai and cyantraniliprole when controlling diamondback moth, cabbage looper, beet armyworm, soybean looper, corn earworm, southwestern corn borer and sugarcane borer. Xentari® was used as the source of Bacillus thuringiensis subsp. aizawai and Exirel® was used as the source of cyantraniliprole. The present invention is not limited to the products or formulation types used herein. In each example below, the studies were conducted as follows.
For these tests, standardized laboratory leaf dip methods were used to inoculate plant material with treatment(s). […] Synergy ratings were calculated for each test. […]
% Cexp=A+B−(AB/100), where % Cexp is the expected efficacy and “in which A and B are the control levels given by the single [insecticides]. […] Adopting a conservative approach, Applicant determined synergy to be present at ratios of >1.15. […]
In order to determine synergy, rates below normal field rate ranges must be used. If normal field rate ranges are used, all of the larvae would die (combining a lethal or near lethal dose of Bacillus thuringiensis subsp. aizawai with a lethal dose of cyantraniliprole would most likely lead to larvae death) in every treatment and synergy would not be able to be determined. […]

The subject of assay [1] is southwestern corn borer larvae. Kind of assay: Leaf dip test, southwestern corn borer larvae. The format is in vivo, Diatraea grandiosella. The following applies: foliar, Bta 2.7 ppm, cyantraniliprole 0.1 ppm, mixture 2.7 ppm + 0.1 ppm, read-out: % Efficacy. Here is the method:
as §1, §2, §3

Where two headings read alike, the source gives them in different places.

For the compound `CNC(=O)c1cc(C#N)cc(C)c1NC(=O)c1cc(Br)nn1-c1ncccc1Cl` [Cyantraniliprole, 3-Bromo-1-(3-chloro-2-pyridinyl)-N-[4-cyano-2-methyl-6-(methylcarbamoyl)phenyl]-1H-pyrazole-5-carboxamide], the Emax at 10 ppm is 49% in the assay with corn earworm larvae (24 h after treatment) and 51% in the assay with corn earworm larvae (48 h after treatment). Besides, the Emax at 1 ppm is 4% with soybean looper larvae (24 h after treatment); 25% in the assay on soybean looper larvae (48 h after treatment); 42% in the assay with sugarcane borer larvae (24 h after treatment); 42% with sugarcane borer larvae (48 h after treatment); 22% in the assay with beet armyworm larvae (24 h after treatment); 36% in the assay with beet armyworm larvae (48 h after treatment). Also, the Emax at 0.5 ppm stood at 18% in the assay on cabbage looper larvae (24 h after treatment) and 38% in the assay on cabbage looper larvae (48 h after treatment). Also, the Emax at 0.1 ppm stood at 34% in the assay on diamondback moth larvae (24 h after treatment), 60% in the assay with diamondback moth larvae (48 h after treatment), 17% in assay [1] (24 h after treatment) and 24% in assay [1] (48 h after treatment).
